Test results: US9193722B2, “Tri-cyclic pyrazolopyridine kinase inhibitors” (Vertex Pharmaceuticals Incorporated, priority 2008, dated 2015)

What was measured:
Format in all cases: biochemical
[1] = molecular target: PKC alpha kinase (Homo sapiens, UniProt P17252); assay: PKC alpha kinase inhibition, coupled-enzyme (NADH absorbance) assay, Ki; details: 130 μM ATP, 4.5 nM PKC alpha kinase, 30° C.
Summary of the method: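 Enzyme in 100 mM HEPES pH 7.5, 10 mM MgCl2, 100 μM CaCl2, 0.01% Brij, preincubated with compound 10 min at 30 °C. Reaction started with 130 μM ATP (final); NADH consumption followed at 340 nm for 15 min at 30 °C. Ki fitted by non-linear regression of initial rates.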

[2] = molecular target: PKC theta kinase (Homo sapiens, UniProt Q04759); assay: PKC theta kinase inhibition, coupled-enzyme (NADH absorbance) assay, Ki; details: 240 μM ATP, 18 nM PKC theta kinase, 30° C.
PKC theta kinase, sequence (Q04759 whole entry): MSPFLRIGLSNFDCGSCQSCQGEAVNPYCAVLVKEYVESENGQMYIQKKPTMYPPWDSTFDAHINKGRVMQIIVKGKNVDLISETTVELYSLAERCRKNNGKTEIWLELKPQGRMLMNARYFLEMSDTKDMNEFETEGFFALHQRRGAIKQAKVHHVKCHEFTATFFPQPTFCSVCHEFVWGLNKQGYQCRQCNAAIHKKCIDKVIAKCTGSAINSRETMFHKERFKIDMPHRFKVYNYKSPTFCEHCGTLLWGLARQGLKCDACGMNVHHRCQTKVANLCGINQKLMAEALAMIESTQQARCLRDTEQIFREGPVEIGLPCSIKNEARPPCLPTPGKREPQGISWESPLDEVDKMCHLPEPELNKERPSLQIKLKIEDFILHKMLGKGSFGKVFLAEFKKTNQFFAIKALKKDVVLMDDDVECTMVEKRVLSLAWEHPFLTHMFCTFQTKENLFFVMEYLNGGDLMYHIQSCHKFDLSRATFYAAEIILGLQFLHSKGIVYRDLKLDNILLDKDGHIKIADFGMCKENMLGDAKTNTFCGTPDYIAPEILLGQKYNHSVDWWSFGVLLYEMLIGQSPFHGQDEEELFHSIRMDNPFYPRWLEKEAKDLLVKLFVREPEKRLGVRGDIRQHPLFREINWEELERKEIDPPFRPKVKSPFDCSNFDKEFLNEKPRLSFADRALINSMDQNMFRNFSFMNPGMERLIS
Summary of the method: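 Coupled-enzyme kinase assay following NADH absorbance at 340 nm, in 100 mM HEPES pH 7.5, 10 mM MgCl2, 25 mM NaCl, 0.1 mM EDTA, 0.01% Brij. Compound in DMSO preincubated with enzyme 10 min at 30 °C. Ki from initial rates by non-linear regression.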

[3] = molecular target: PKC delta kinase (Homo sapiens, UniProt Q05655); assay: PKC delta kinase inhibition, coupled-enzyme (NADH absorbance) assay, Ki; details: 150 μM ATP, 46 nM PKC delta kinase, 30° C.; read-out: Ki PKC delta
PKC delta kinase, sequence (Q05655 whole entry): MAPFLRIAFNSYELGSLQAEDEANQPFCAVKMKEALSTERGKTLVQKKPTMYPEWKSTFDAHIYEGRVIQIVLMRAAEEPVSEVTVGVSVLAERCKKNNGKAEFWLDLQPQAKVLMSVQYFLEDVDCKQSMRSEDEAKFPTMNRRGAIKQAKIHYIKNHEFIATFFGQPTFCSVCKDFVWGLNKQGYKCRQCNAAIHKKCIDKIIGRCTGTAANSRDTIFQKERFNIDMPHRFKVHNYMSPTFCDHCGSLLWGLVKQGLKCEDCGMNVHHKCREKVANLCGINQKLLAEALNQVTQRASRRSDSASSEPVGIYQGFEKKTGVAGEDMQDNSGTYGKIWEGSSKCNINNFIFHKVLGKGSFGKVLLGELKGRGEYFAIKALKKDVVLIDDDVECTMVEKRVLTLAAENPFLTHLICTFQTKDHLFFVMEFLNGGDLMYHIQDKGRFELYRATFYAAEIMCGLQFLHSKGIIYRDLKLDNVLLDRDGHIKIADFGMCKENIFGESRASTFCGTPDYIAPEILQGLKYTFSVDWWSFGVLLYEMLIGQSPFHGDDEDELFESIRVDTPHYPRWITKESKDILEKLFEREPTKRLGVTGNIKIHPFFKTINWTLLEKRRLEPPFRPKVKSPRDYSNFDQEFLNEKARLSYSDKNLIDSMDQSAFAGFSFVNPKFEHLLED
Summary of the method: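 PKC delta in 100 mM HEPES pH 7.5, 10 mM MgCl2, 25 mM NaCl, 0.1 mM EDTA, 0.01% Brij, equilibrated 10 min at 30° C with compound from DMSO stock. Started with ATP at 150 μM final; NADH-coupled absorbance at 340 nm followed 15 min at 30° C. Ki from initial rates by non-linear regression.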

Row | Structure (SMILES) | Ki [1] | Ki [2] | Ki [3]
1 | CCC(C)(O)C1CN(c2ccc(F)c(-c3n[nH]c4ncccc34)n2)CCN1 (stereo not drawn) [Compound 244] | > 1250 nM | < 500 nM | > 1250 nM
2 | NCC1CN(c2ccc(F)c(-c3n[nH]c4ncccc34)n2)CCO1 (stereo not drawn) [Compound 395] | > 1250 nM | < 500 nM | > 1250 nM
3 | NC1CCN(c2ccc(C(F)(F)F)c(-c3n[nH]c4ncccc34)n2)CC12CCCC2 (stereo not drawn) [Compound 464] | < 500 nM | < 50 nM | < 500 nM
4 | CC(C)C[C@H]1CN(c2cccc(-c3n[nH]c4ncc(Cl)cc34)n2)CCN1 [Compound 38] | < 500 nM | < 50 nM | < 500 nM
5 | CC(C)(F)C1CN(c2cccc(-c3n[nH]c4ncccc34)n2)CCN1 (stereo not drawn) [Compound 148] | > 1250 nM | < 50 nM | < 500 nM
6 | Cc1ccc(N2CCNCC2)nc1-c1n[nH]c2ncccc12 [Compound 3] | > 2800 nM | < 500 nM | < 2800 nM
7 | CC(C)C(C)(O)C1CN(c2cc(C(F)(F)F)cc(-c3n[nH]c4ncccc34)n2)CCN1 (stereo not drawn) [Compound 342] | > 1250 nM | < 500 nM | > 1250 nM
8 | CC(O)C1CN(c2cccc(-c3n[nH]c4ncccc34)n2)CCN1 (stereo not drawn) [Compound 164] | > 1250 nM | < 50 nM | < 500 nM
9 | CC(C)(C)C(N)C1CCCN(c2ccc(F)c(-c3n[nH]c4ncccc34)n2)C1 (stereo not drawn) [Compound 330] | < 500 nM | < 1 nM | < 10 nM
10 | CC(C)(O)[C@@H]1CN(c2cccc(-c3n[nH]c4ncccc34)n2)CCN1 [Compound 176] | > 1250 nM | < 50 nM | < 50 nM
11 | COC[C@H]1CN(c2cccc(-c3n[nH]c4ncccc34)n2)CCN1 [Compound 184] | > 1250 nM | < 50 nM | < 500 nM
12 | CC(C)C(C)(O)C1CN(c2nc(-c3n[nH]c4ncccc34)ccc2F)CCN1 (stereo not drawn) [Compound 373] | < 500 nM | < 1 nM | < 50 nM
13 | CC(C)C(N)C1CCCN(c2ccc(F)c(-c3n[nH]c4ncccc34)n2)C1 (stereo not drawn) [Compound 280] | < 2800 nM | < 50 nM | < 500 nM
14 | CCCC1CN(c2cccc(-c3n[nH]c4ncccc34)n2)CCN1 (stereo not drawn) [Compound 59] | < 2800 nM | < 50 nM | < 500 nM
15 | NCC1CN(c2ccc(C(F)(F)F)c(-c3n[nH]c4ncccc34)n2)CCO1 (stereo not drawn) [Compound 336] | > 1250 nM | > 700 nM | > 1250 nM
16 | COC(C)(C)C1CN(c2cccc(-c3n[nH]c4ncccc34)n2)CCN1 (stereo not drawn) [Compound 181] | > 1250 nM | < 50 nM | < 500 nM
17 | CC(C)C[C@H]1CN(c2cccc(-c3n[nH]c4ncccc34)n2)CC[C@H]1N [Compound 118] | < 2800 nM | < 50 nM | < 500 nM
18 | CC1CN(c2cccc(-c3n[nH]c4ncccc34)n2)C(C)CN1 (stereo not drawn) [Compound 23] | > 1250 nM | > 700 nM | > 2000 nM
19 | CC(O)(c1ccccc1)C1CN(c2ccc(F)c(-c3n[nH]c4ncccc34)n2)CCN1 (stereo not drawn) [Compound 322] | > 1250 nM | < 500 nM | > 1250 nM
20 | NCC1CN(c2ccc(C(F)(F)F)c(-c3n[nH]c4ncccc34)n2)C1 [Compound 363] | > 1250 nM | > 700 nM | > 1250 nM
21 | Cc1cc(N2CCC(N)CC2)nc(-c2n[nH]c3ncccc23)c1Cl [Compound 109] | > 1250 nM | < 2800 nM | > 1250 nM
22 | CC(C)CC1(CO)CN(c2ccc(C(F)(F)F)c(-c3n[nH]c4ncccc34)n2)CCC1N (stereo not drawn) [Compound 410] | < 500 nM | < 50 nM | < 50 nM
23 | CC(C)CC1CCCN(c2ccc(C(F)(F)F)c(-c3n[nH]c4ncccc34)n2)C1 (stereo not drawn) [Compound 333] | > 1250 nM | > 700 nM | > 1250 nM
24 | NC[C@@H]1CCN(c2cc(C(F)(F)F)cc(-c3n[nH]c4ncccc34)n2)C1 [Compound 420] | > 1250 nM | < 2800 nM | > 1250 nM
25 | C=C(F)c1ccc(N2CCN[C@@H](CC(C)C)C2)nc1-c1n[nH]c2ncccc12 [Compound 6] | < 500 nM | < 50 nM | < 500 nM
26 | CC(C)C[C@H]1CN(c2cc(C#N)cc(-c3n[nH]c4ncccc34)n2)CCN1 [Compound 442] | > 1250 nM | < 500 nM | < 500 nM
27 | CCCC1(CN)CN(c2ccc(C(F)(F)F)c(-c3n[nH]c4ncccc34)n2)CCO1 (stereo not drawn) [Compound 404] | < 2800 nM | < 500 nM | < 500 nM

Row | Structure (SMILES) | Ki [1] | Ki [2] | Ki [3]
28 | CC(C)(C)C[C@H]1CN(c2cccc(-c3n[nH]c4ncccc34)n2)CCN1 [Compound 139] | < 2800 nM | < 50 nM | < 50 nM
29 | CC(C)C[C@@H]1CC(F)(c2cccc(-c3n[nH]c4ncccc34)n2)CCN1 (stereo partly drawn) [Compound 99] | > 1250 nM | < 500 nM | > 2000 nM
30 | CNC1CCN(c2ccc(C(F)(F)F)c(-c3n[nH]c4ncccc34)n2)CC1 [Compound 359] | > 1250 nM | > 700 nM | > 1250 nM
31 | CC1CN(c2ccc(C(F)(F)F)c(-c3n[nH]c4ncccc34)n2)CC1CN (stereo not drawn) [Compound 332] | > 1250 nM | > 700 nM | > 1250 nM
32 | c1cnc2[nH]nc(-c3nccc(N4CCNCC4)n3)c2c1 [Compound 81, 3-(4-(piperazin-1-yl)pyrimidin-2-yl)-1H-pyrazolo[3,4-b]pyridine] | > 1250 nM | > 700 nM | > 2000 nM
33 | CC(C)=CC1CN(c2ccc(C(F)(F)F)c(-c3n[nH]c4ncccc34)n2)CCN1 (stereo not drawn) [Compound 104] | < 2800 nM | < 50 nM | < 2800 nM
34 | CCC(N)(CC)C1CCCN(c2ccc(F)c(-c3n[nH]c4ncccc34)n2)C1 (stereo not drawn) [Compound 377] | > 1250 nM | < 500 nM | < 2800 nM
35 | N#CC1CCN(c2ccc(F)c(-c3n[nH]c4ncccc34)n2)CC1 [Compound 275] | > 1250 nM | > 700 nM | > 1250 nM
36 | CC(C)C[C@H]1CN(c2ccc(C(F)(F)F)c(-c3n[nH]c4ncccc34)n2)CC(F)(F)CN1 [Compound 222] | > 1250 nM | > 700 nM | > 1250 nM
37 | CC(C)C[C@H]1CN(c2ccc(C(F)(F)F)c(-c3n[nH]c4ncccc34)n2)CC[C@@H]1N [Compound 85] | > 1250 nM | < 500 nM | > 2000 nM
38 | CC(C)CC1(N)CCCN(c2ccc(F)c(-c3n[nH]c4ncccc34)n2)C1 (stereo not drawn) [Compound 284] | > 1250 nM | < 500 nM | > 1250 nM
39 | CN1CCCN(c2cccc(-c3n[nH]c4ncccc34)n2)CC1 [Compound 34] | < 500 nM | < 500 nM | > 2000 nM
40 | CC(C)CC1(O)CCCN(c2ccc(F)c(-c3n[nH]c4ncccc34)n2)C1 (stereo not drawn) [Compound 295] | > 1250 nM | < 2800 nM | > 1250 nM
41 | OC1(c2cccc(-c3n[nH]c4ncccc34)n2)CCNCC1 [Compound 60, 4-(6-(1H-pyrazolo[3,4-b]pyridin-3-yl)pyridin-2-yl)piperidin-4-ol] | > 1250 nM | > 700 nM | < 500 nM
42 | CC(C)C(F)(F)C1CN(c2ccc(C(F)(F)F)c(-c3n[nH]c4ncccc34)n2)CCN1 (stereo not drawn) [Compound 150] | > 1250 nM | < 500 nM | > 1250 nM
43 | CCC(C)(C)C(N)C1CCCN(c2ccc(F)c(-c3n[nH]c4ncccc34)n2)C1 (stereo not drawn) [Compound 378] | < 2800 nM | < 50 nM | < 500 nM
44 | CC(C)CC1CCCN(c2ccc(F)c(-c3n[nH]c4ncccc34)n2)C1 (stereo not drawn) [Compound 334] | > 1250 nM | > 700 nM | > 1250 nM
45 | CC(C)C[C@H]1CC(O)(c2cccc(-c3n[nH]c4ncccc34)n2)CCN1 (stereo partly drawn) [Compound 111] | > 1250 nM | > 700 nM | > 1250 nM
46 | FC(F)(F)c1ccc(N2CCN[C@@H](CC3CC3)C2)nc1-c1n[nH]c2ncccc12 [Compound 165] | > 1250 nM | < 500 nM | > 1250 nM
47 | NC(=O)C1(N)CCN(c2ccc(C(F)(F)F)c(-c3n[nH]c4ncccc34)n2)CC1 [Compound 398] | > 1250 nM | > 700 nM | > 1250 nM
48 | NCC1CN(c2cc(C(F)(F)F)cc(-c3n[nH]c4ncccc34)n2)C1 [Compound 433] | > 1250 nM | < 2800 nM | > 1250 nM
49 | CCNC(=O)CC1CN(c2ccc(C(F)(F)F)c(-c3n[nH]c4ncccc34)n2)CCN1 (stereo not drawn) [Compound 212] | > 1250 nM | > 700 nM | > 1250 nM
50 | CC1CN(c2ccc(F)c(-c3n[nH]c4ncccc34)n2)CC(C2(O)CCC2)N1 (stereo not drawn) [Compound 256] | > 1250 nM | < 500 nM | > 1250 nM
51 | CC(F)(F)CC1CN(c2ccc(F)c(-c3n[nH]c4ncccc34)n2)CCN1 (stereo not drawn) [Compound 155] | > 1250 nM | < 50 nM | < 500 nM
52 | CCC1CN(c2ccc(F)c(-c3n[nH]c4ncccc34)n2)CCC1C#N (stereo not drawn) [Compound 407] | > 1250 nM | < 50 nM | < 2800 nM
53 | CC(C)CC1(C#N)CN(c2ccc(F)c(-c3n[nH]c4ncccc34)n2)C1 [Compound 456] | > 1250 nM | > 700 nM | > 1250 nM
